The source of these data is ChEMBL document CHEMBL4840369, “Structure-based screening combined with computational and biochemical analyses identified the inhibitor targeting the binding of DNA Ligase 1 to UHRF1” (Bioorg Med Chem, 2021).

The structures appear in SMILES notation. Activity calls are given as the source filed them. The calls are words filed in the database; no cut-off is given here.

In assay [1] the target is E3 ubiquitin-protein ligase UHRF1 (Homo sapiens, UniProt Q96T88, F278A). Description: Binding affinity to UHRF1 F278A mutant (unknown origin) assessed as dissociation constant by ITC analysis.
The target of assay [2] is T1, E3 ubiquitin-protein ligase UHRF1 (Homo sapiens) (UniProt Q96T88).
T1 sequence (whole entry): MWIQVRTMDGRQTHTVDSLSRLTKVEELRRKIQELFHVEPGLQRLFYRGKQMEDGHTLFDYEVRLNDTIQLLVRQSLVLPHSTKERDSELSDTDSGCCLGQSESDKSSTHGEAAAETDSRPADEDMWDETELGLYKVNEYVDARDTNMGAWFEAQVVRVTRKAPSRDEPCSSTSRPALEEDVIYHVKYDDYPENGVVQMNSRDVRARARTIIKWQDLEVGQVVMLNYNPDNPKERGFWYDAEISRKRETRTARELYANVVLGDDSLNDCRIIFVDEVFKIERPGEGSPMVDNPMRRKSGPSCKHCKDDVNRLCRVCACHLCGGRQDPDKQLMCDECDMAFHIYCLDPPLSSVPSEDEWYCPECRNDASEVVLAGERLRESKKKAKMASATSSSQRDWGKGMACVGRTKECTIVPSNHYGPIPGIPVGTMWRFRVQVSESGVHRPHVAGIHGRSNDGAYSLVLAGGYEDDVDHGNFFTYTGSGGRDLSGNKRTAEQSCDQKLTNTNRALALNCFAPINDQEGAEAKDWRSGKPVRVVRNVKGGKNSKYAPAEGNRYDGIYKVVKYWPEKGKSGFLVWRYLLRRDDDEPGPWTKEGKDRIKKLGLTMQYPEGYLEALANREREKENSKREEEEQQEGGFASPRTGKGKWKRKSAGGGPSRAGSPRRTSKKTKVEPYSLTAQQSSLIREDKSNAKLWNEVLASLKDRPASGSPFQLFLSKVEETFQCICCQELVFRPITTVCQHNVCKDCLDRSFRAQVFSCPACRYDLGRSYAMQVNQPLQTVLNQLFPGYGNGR
Description: Binding affinity to UHRF1 TTD (unknown origin) assessed as change in enthalpy by ITC analysis.

For assay [3], the target named is T1, E3 ubiquitin-protein ligase UHRF1 (Homo sapiens). Put plainly: Displacement of FAM-labeled LIG1K126me3 from UHRF1 TTD(unknown origin) by fluorescence polarization assay.
For assay [4], the target named is E3 ubiquitin-protein ligase UHRF1 (Homo sapiens, UniProt Q96T88). Put plainly: Binding affinity to UHRF1 TTD variant loop (unknown origin) assessed as dissociation constant by ITC analysis.
Assay [5] deals with T1, E3 ubiquitin-protein ligase UHRF1 (Homo sapiens). Put plainly: Displacement of FAM-labeled H3K9me3 from UHRF1 TTD(unknown origin) by fluorescence polarization assay.
The target in assay [6] is E3 ubiquitin-protein ligase UHRF1 (Homo sapiens, UniProt Q96T88, Y188A/Y191A). Description: Binding affinity to UHRF1 Y188A/Y191A double mutant (unknown origin) assessed as dissociation constant by ITC analysis.
Assay [7] deals with T2, E3 ubiquitin-protein ligase UHRF1 (Xenopus laevis) (UniProt B6CHA3).
T2 sequence (whole entry): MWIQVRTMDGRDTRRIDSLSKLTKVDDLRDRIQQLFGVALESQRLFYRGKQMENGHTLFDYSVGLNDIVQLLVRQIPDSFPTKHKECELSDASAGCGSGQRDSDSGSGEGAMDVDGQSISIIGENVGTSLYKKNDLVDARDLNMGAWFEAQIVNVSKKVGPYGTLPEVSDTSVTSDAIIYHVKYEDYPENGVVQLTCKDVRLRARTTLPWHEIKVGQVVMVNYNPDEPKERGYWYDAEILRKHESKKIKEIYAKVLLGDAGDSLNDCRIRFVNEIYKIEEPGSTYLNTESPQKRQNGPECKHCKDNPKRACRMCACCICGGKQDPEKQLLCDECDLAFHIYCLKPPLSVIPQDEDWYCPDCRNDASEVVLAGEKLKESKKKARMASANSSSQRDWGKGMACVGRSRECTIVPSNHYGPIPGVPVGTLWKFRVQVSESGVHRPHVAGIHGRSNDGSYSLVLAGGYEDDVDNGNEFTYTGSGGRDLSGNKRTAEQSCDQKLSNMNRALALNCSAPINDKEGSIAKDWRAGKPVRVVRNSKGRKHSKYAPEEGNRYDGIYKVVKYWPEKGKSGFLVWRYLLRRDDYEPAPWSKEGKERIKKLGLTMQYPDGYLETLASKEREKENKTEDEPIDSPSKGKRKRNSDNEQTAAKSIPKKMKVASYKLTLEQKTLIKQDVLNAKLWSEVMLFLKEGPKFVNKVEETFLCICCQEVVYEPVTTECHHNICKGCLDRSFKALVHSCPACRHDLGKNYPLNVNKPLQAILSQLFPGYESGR
Description: Inhibition of UHRF1 TTD binding with LIG1K126me3 in Xenopus laevis eggs incubated for 1 hr by immunoprecipitation. In kind it is tissue-based. To be noted: Egg.

Assay [8] has as its target E3 ubiquitin-protein ligase UHRF1 (Homo sapiens, UniProt Q96T88, M224A). Put plainly: Binding affinity to UHRF1 M224A mutant (unknown origin) assessed as dissociation constant by ITC analysis.
Assay [9] addresses T1, E3 ubiquitin-protein ligase UHRF1 (Homo sapiens). Description: Binding affinity to UHRF1 TTD (unknown origin) assessed as increase in thermal stability by measuring change in melting temperature by SYPRO orange dye based fluorescence assay.
For assay [10], the target named is T3, E3 ubiquitin-protein ligase UHRF1 (Homo sapiens, UniProt Q96T88).
T3 sequence (Q96T88 whole entry): T1 sequence (whole entry)
Put plainly: Binding affinity to UHRF1 TTD (unknown origin) assessed as dissociation constant by ITC analysis.

Assay [11] addresses T1, E3 ubiquitin-protein ligase UHRF1 (Homo sapiens). Description: Binding affinity to UHRF1 TTD (unknown origin) assessed as compound-protein complex stoichiometry ratio of 1:1 by ITC analysis.
Assay [12] shares this target. Description: Binding affinity to UHRF1 TTD (unknown origin) assessed as increase in thermal stability by melting temperature by SYPRO orange dye based fluorescence assay (reference value: 46.5 +/- 0.1 degreeC).

Sequence of E3 ubiquitin-protein ligase UHRF1 (Homo sapiens, UniProt Q96T88, F278A) (Q96T88 whole entry F278A): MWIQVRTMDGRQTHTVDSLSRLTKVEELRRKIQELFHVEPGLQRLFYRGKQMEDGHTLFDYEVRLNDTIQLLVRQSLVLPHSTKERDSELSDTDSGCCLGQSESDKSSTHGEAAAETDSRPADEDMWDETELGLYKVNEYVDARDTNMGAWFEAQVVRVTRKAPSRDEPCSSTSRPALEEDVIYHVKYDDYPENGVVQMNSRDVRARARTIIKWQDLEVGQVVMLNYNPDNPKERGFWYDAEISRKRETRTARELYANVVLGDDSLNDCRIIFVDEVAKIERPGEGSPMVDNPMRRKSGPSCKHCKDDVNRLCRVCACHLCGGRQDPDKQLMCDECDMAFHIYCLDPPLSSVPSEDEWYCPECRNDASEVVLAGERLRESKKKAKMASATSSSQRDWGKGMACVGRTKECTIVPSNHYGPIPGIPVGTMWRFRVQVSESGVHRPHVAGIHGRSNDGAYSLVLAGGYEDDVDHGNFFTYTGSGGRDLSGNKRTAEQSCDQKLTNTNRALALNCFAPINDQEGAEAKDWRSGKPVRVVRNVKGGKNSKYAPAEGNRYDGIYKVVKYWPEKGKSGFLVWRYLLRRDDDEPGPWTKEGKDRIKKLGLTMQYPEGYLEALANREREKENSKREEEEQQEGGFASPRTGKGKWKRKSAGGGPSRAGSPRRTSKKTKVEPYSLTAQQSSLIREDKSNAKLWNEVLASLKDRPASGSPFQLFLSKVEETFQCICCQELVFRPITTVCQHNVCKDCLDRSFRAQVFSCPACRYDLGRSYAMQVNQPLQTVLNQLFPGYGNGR
Sequence of E3 ubiquitin-protein ligase UHRF1 (Homo sapiens, UniProt Q96T88, M224A) (Q96T88 whole entry M224A): as the sequence (Q96T88 whole entry F278A) above, with M224A, A278F counted along it
Sequence of E3 ubiquitin-protein ligase UHRF1 (Homo sapiens, UniProt Q96T88, Y188A/Y191A) (Q96T88 whole entry Y188A/Y191A): as the sequence (Q96T88 whole entry F278A) above, with Y188A, Y191A, A278F counted along it

As to `Cc1cc(C)c(N)cn1`, the equilibrium dissociation constant (Kd) in assay [1] is more than 183 µM; in assay [4], 20.7 µM; in assay [6], 32 µM; in assay [8] it was more than 111 µM; in assay [10], 19.3 µM. In addition, in assay [2], the deltaH is -8.5 kcal/mol. In addition, the INH amounted to 806 µM in assay [3] and 249 µM in [5]. Also, the inhibition entry in assay [7] is “Dose-Dependent Effect”. Moreover, the deltaT in assay [9] worked out at 3.1 °C. For the same molecule, in assay [11], the result was Active. Besides, the Tm in assay [12] is 49.6 °C.
